Reference: patent publication US12384775B2, “Pyrimid-2-yl-pyrazole compounds as IRAK inhibitors” (Rigel Pharmaceuticals, Inc., priority 2022, dated 2025)

How the values were obtained:
[1] = Plasma protein binding, equilibrium dialysis (RED), human; type: in vitro ADME; conditions: for recovery at 5 μM / fraction unbound at 5 μM: Human plasma, drug 5 μM; for fraction unbound at 5 μM: read-out: % bound (converted); for Free Fraction in Whole Blood Assay, Human: plasma free fraction
Procedure: Brain and plasma drug binding were performed by equilibrium dialysis using the Rapid Equilibrium Dialysis (RED) device. Briefly, 300 μL of plasma or brain homogenate (1 brain/3 buffer) containing drug (5 μM) was equilibrated (4-18 h) against 500 μL of buffered saline. After incubation, the concentration of drug in plasma/brain homogenate and buffer was determined by LC-MS/MS.
Recovery is calculated by determining the total amount of drug in 50 μL of plasma and 50 μL buffer after the incubation and comparing that value to the amount of drug in 50 μL of a plasma sample that was not incubated. For the protein binding assay, drug was added to the plasma and this plasma was added to one side of the dialysis device while buffer was added to the other. After filing the plasma chamber of the equilibrium device, a 50 μL aliquot of plasma was mixed with 50 μL of buffer and then quenched with stop reagent. Drug recovery=(Drug buffer+Drug plasma)/(drug in initial plasma)

IL23p19 in THP-1 Cells = assay: LPS induced IL23p19 in THP-1 cells (IFNγ primed), ELISA; type: cell-based; conditions: Homo sapiens; for IC50: THP-1, LPS, read-out: Cell Assays IC50, IL-23 (LPS, THP-1)
Procedure: On day 1, 50K/well THP-1 cells were seeded and primed with IFNγ (50 ng/mL) in 384-well plates for about 18 hours in RPMI media with 10% FBS. On day 2, the compound was serially diluted in DMSO from 5 mM in 3-fold dilutions, and then diluted 1:125 in RPMI media with 10% FBS. 50 μL/well 2× compound was added to 50 μL/well THP-1 cells (with IFNγ primed) in duplicate in 384 well tissue culture plates. The cells were pre-incubated with compound for 1 hour at 37° C., 5% CO2 before addition of 10 μL/well 11×LPS to give a final concentration of 1 μg/mL LPS. Day 3, after stimulation for 18 hours at 37° C., 5% CO2, the assay plate was centrifuged and 70 μL/well supernatant was harvested. IL-23p19 protein in 70 μL/well of supernatant was measured by sandwich ELISA, and 25 μl/well Cell Titer Glo reagent was added to the remaining cells to measure compound toxicity.
Maxisorp immuno ELISA plates were pre-coated with 25 μL/well of anti-IL-23p19 capture antibody (2.5 ug/mL) in PBS overnight at room temperature. After washing with 1×PBST, the plates were blocked using 100 μL/well of 1% BSA in PBS for 2 hours at room temperature. The plates were washed three times with 1×PBST and 70 μL/well supernatant were added. The plates were incubated at room temperature for 2 hours with shaking and washed three times with 1×PBST. 25 μL/well of biotin labeled anti-IL-12 (p40/p70) detection antibody (100 ng/mL) in PBS with 1% BSA was added and the plates were incubated at room temperature for 2 hours with shaking. After washing three times with 1× PBST, 25 μL/well of streptavidin-HRP (1:200) in PBS with 1% BSA was added and the plates were incubated at room temperature for 20 minutes with shaking. The plates were washed three times with 1× PBST and 25 μL/well of Super Signal ELISA Pico Chemiluminescent Substrate were added. The plates were read with a luminometer, and the chemiluminescence values were entered into Athena (Rigel) for curve fitting, EC50 calculation, and database storage.
THP-1 cells (100K in 100 μL/well) were primed with 25 ng/mL IFN-γ for 18 hours at 37° C., 5% CO2. Compound was serially diluted in DMSO from 2.5 mM in 4-fold dilutions, and then diluted 1:125 in RPMI 1640 complete media with 10% FBS. 100 μL/well 2× compound was mixed with the 100 μL/well IFN-7 primed THP-1 in 96 well flat-bottom white tissue culture plates. The cells were pre-incubated with compound for 1 hour at 37° C., 5% CO2 and before addition of 10 μL/well 21×LPS to give a final concentration of […] for LPS. The cells were stimulated with LPS for 18 hours at 37° C., 5% CO2. After centrifugation, 100 μL/well supernatant was extracted by using a multichannel pipette. IL-23p19 or TNF-α protein in the supernatant were measured by sandwich ELISA. The remaining IFN-7 primed THP-1 cell pellets were used to perform cell viability assays to determine compound cell toxicity. The plates were read with a luminometer, and the chemiluminescence values were entered into Athena (Rigel) for curve fitting, EC50 calculation, and database storage.
Maxisorp immuno ELISA plates were pre-coated with 100 μL/well of anti-IL-23p19 capture antibody (2.4 μg/mL) in PBS overnight at room temperature. After washing with 1×PBST, the plates were blocked using 300 μL/well of 1% BSA in PBS for 2 hours at room temperature. The plates were washed three times with 1×PBST and 100 μL/well supernatant was added. The plates were incubated at room temperature for 2 hours with shaking. The plates were washed three times with 1×PBST and 100 μL/well of biotin anti-human IL-12 (p40/70) detection antibody (10 ng/mL) in PBS with 0.1% BSA were added. The plates were incubated at room temperature for 2 hours with shaking. The plates were washed three times with 1×PBST and 100 μL/well streptavidin-HRP (1:200) in PBS with 0.1% BSA was added. The plates were incubated at room temperature for 20 minutes with shaking. […]

Compound | recovery at 5 μM [1] [%] | fraction unbound at 5 μM [1] | Free Fraction in Whole Blood Assay, Human [1] [%] | times more free than Comparison-1 (free drug) ([1]; in rat, dog, monkey and human proteins) | IC50 (IL23p19 in THP-1 Cells) [nM] | EC50 (IL23p19 in THP-1 Cells; THP-1 cells IFNγ primed, LPS 1 μg/mL, 18 h, read-out: IL23-p19 ELISA, THP1-IFNy, LPS, 10 pt EC50) [nM]
CCO[C@H]1CC[C@H](n2cc(NC(=O)c3csc(-c4cn[nH]c4)n3)c(-c3ncccn3)n2)CC1 [Compound I-1, N-(1-((1r,4r)-4-ethoxycyclohexyl)-3-(pyrimidin-2-yl)-1H-pyrazol-4-yl)-2-(1H-pyrazol-4-yl)thiazole-4-carboxamide] | 77.1 | 0.03 | 3.0 | approximately 6 times | 8 | 8
CCO[C@H]1CC[C@H](n2cc(NC(=O)c3csc(-c4cn[nH]c4)n3)c(-c3nc(F)ccc3F)n2)CC1 [Comparison-1, reference compound] | 75.5 | 0.004 | 0.4 |  | 63 | 
